Measurements taken from paper PMC11162475, “Rule-based omics mining reveals antimicrobial macrocyclic peptides against drug-resistant clinical isolates” (Nature Communications, 2024).

Tested on: ICR mice
Test: Mouse acute toxicity test
Assay type: in vivo
Experimental: Massatide A was dissolved in saline to the required concentration for the experiments. Six-week-old specific pathogen-free male ICR mice weighing 18–20 g were randomly divided into 4 groups (4 per group) and administered in a single intraperitoneal injection. Group 1 animals received 0.9% saline only, while groups 2–4 were given massatide A at 10, 30, and 50 mg/kg, respectively. The animals were continuously observed for general behavioral changes for 5 days and survival rate was recorded.

## C/C=C1\NC(=O)C(N(C)C)C(C)SC[C@@H](C(=O)N[C@H](CC)C(=O)N[C@H](C(=O)N[C@@H](C)C(=O)N[C@H](C)C(=O)N[C@@H](Cc2ccccc2)C(=O)N[C@@H](C)C(=O)NC2C(=O)NCC(=O)N[C@@H](Cc3ccc(O)cc3)C(=O)N[C@@H](Cc3ccccc3)C(=O)N[C@H](C)C(=O)N/C=C\SC2C)C(C)C)NC(=O)[C@@H]2CCCN2C(=O)[C@H](C(C)C)NC1=O (stereo partly shown) [Massatide A (1), massatide A]
10 mg/kg i.p., day 1, 4 mice per group
  number of new dead mouse: 0
10 mg/kg i.p., day 2, 4 mice per group
  number of new dead mouse: 0
10 mg/kg i.p., day 3, 4 mice per group
  number of new dead mouse: 0
10 mg/kg i.p., day 5, 4 mice per group
  number of new dead mouse: 0
30 mg/kg i.p., day 1, 4 mice per group
  number of new dead mouse: 0
30 mg/kg i.p., day 2, 4 mice per group
  number of new dead mouse: 0
30 mg/kg i.p., day 3, 4 mice per group
  number of new dead mouse: 0
30 mg/kg i.p., day 5, 4 mice per group
  number of new dead mouse: 0
50 mg/kg i.p., day 1, 4 mice per group
  number of new dead mouse: 0
50 mg/kg i.p., day 2, 4 mice per group
  number of new dead mouse: 0
50 mg/kg i.p., day 3, 4 mice per group
  number of new dead mouse: 0
50 mg/kg i.p., day 5, 4 mice per group
  number of new dead mouse: 0
Male ICR mice, single intraperitoneal injection, 10-50 mg/kg, 5 days, 4 per group
  survival / signs of acute toxicity: all treated mice survived without any signs of acute toxicity
